From patent US12226449B2, “Materials and methods for the prevention of rheumatoid arthritis” (The University of Toledo, priority 2018, dated 2025)
Entries after “also recorded” stand apart in the source; their conditions may differ.

B1: 14-3-3ε: another 14-3-3 isoform, used for specificity and comparison (protein, UniProt P62258 1-255, looked up)
14-3-3 protein epsilon: MDDREDLVYQAKLAEQAERYDEMVESMKKVAGMDVELTVEERNLLSVAYKNVIGARRASWRIISSIEQKEENKGGEDKLKMIREYRQMVETELKLICCDILDVLDKHLIPAANTGESKVFYYKMKGDYHRYLAEFATGNDRKEAAENSLVAYKAASDIAMTELPPTHPIRLGLALNFSVFYYEILNSPDRACRLAKAAFDDAIAELDTLSEESYKDSTLIMQLLRDNLTLWTSDMQGDGEEQNKEALQDVEDENQ

Assays:
Assay type in all cases: cell-based
[1] = tested on: human PBMCs; assay: T cell polarization of PBMCs by flow cytometry (CD4, CD366, IL-17, CD8, CD69); conditions: drug present during 14-3-3ζ incubation, prednisolone, prednisone, TJU103 1 μg/ml, cyclophosphamide 0.1 μg/ml, BV02 5 nM
Description: Cells were plated with 14-3-3ζ protein in a 96-well plate for 14 days at 37° C. in complete RPMI culture medium. Phytohemagglutinin (PHA) was used as a positive control. 10 μl MTT was added at a concentration of 5 mg/mL, and the plate was further incubated at 37° C. in the dark for 3 hours. Supernatant was then removed, and 100 μL DMSO was added for another hour before reading the absorbance at 570 nm using FLUOstar Omega microplate reader (BMG Labtech). For T cell differentiation, PBMCs were incubated with 1 μg/ml of 14-3-3ζ for 7 days followed by either the cellular staining for FACS analysis or ELISPOT as per manufacture's protocol. […] PBMCs incubated with 14-3-3ζ for 7 days at 37° C. were fixed in 2% paraformaldehyde for an hour, and washed with PBS. […] For surface staining, cells were stained in 50 μL PBS with 5 μl per million cells antibody for 30 minutes in the dark on ice. For intracellular staining, cells were permeabilized with Triton for 10-15 min. After staining, cells were washed with PBS and resuspended in 1 mL PBS for analysis. The following antibodies from Biolegend Inc. were used: […] Cells were sorted at FACSCanto II system (BD Biosciences) and analyzed using FlowJo software (version 10). A gate was created around an initial population of cells in the FSC-SSC plot, and this population of cells was further analyzed for CD4, CD366, and IL-17 expression. Unstained and isotype labelled cells were used as a control for setting the gates.

[2] = tested on: human PBMCs; assay: ELISPOT assay of IFN-γ and IL-17 secreting cells; conditions: for effect on 14-3-3ζ-induced IFN-γ secreting cells / effect on 14-3-3ζ-induced IL-17 secreting cells: drug present during 14-3-3ζ incubation
Description: Cells were plated with 14-3-3ζ protein in a 96-well plate for 14 days at 37° C. in complete RPMI culture medium. Phytohemagglutinin (PHA) was used as a positive control. 10 μl MTT was added at a concentration of 5 mg/mL, and the plate was further incubated at 37° C. in the dark for 3 hours. Supernatant was then removed, and 100 μL DMSO was added for another hour before reading the absorbance at 570 nm using FLUOstar Omega microplate reader (BMG Labtech). For T cell differentiation, PBMCs were incubated with 1 μg/ml of 14-3-3ζ for 7 days followed by either the cellular staining for FACS analysis or ELISPOT as per manufacture's protocol. For testing the effect of drugs, prednisolone, prednisone, as well as TJU103, were used at 1 μg/ml concentration and cyclophosphamide was used at 0.1 μg/ml concentration.
The protocol was adopted from Immunospot kit from Cellular Technology Limited. In short, PBMCs incubated with 14-3-3ζ for 7 days were plated on the antibody coated ELISPOT plates. About 100,000 cells/well were added and incubated for 2 days at 37° C. followed by the developing protocol. Plates were read with a Quantihub ELISPOT plate reader and manually counted.

[3] = tested on: human PBMCs; assay: ELISA of secreted (accumulated) cytokines of PBMCs; conditions: drug present during 14-3-3ζ incubation
[4] = tested on: human PBMCs; assay: PBMC proliferation, MTT assay; conditions: for effect on 14-3-3ζ-induced PBMC proliferation: inhibitor present during 14-3-3ζ incubation, BV02 5 nM, TJU103 1 μg/ml
Description: Blood from healthy donors was collected as per the approved IRB protocol. The protocol for isolation of PBMCs was previously reported. In short, whole blood was diluted with an equal volume of RPMI before layering on Ficoll-Paque PLUS in a 15 mL tube. Tubes were then centrifuged for 25 minutes with the brakes off at 950 g. PBMCs were collected from the layer between the plasma and Ficoll liquid. PBMCs were then washed twice with RPMI, with 7 min spins at 350×g to pellet the cells. Finally, cells were resuspended in complete RPMI before counting and plating. […] Phytohemagglutinin (PHA) was used as a positive control. 10 μl MTT was added at a concentration of 5 mg/mL, and the plate was further incubated at 37° C. in the dark for 3 hours. Supernatant was then removed, and 100 μL DMSO was added for another hour before reading the absorbance at 570 nm using FLUOstar Omega microplate reader (BMG Labtech). For T cell differentiation, PBMCs were incubated with 1 μg/ml of 14-3-3ζ for 7 days followed by either the cellular staining for FACS analysis or ELISPOT as per manufacture's protocol.

[5] = tested on: human PBMCs; assay: ELISPOT assay of IFN-γ and IL-17 secreting cells; conditions: PBMC treated with protein for 7 d

Row | Molecule | effect on 14-3-3ζ-induced CD366 positive CD4 cells (Th1) [1] | effect on 14-3-3ζ-induced IL-17 positive CD4 cells (Th17) [1] | effect on 14-3-3ζ-induced IFN-γ secreting cells [2] | effect on 14-3-3ζ-induced IL-17 secreting cells [2] | effect on 14-3-3ζ-induced accumulated IL-17 level [3] | effect on IL-6 level [3] | effect on 14-3-3ζ-induced PBMC proliferation [4] | other results
1 | O=P1(N(CCCl)CCCl)NCCCO1 (stereo not drawn) [cyclophosphamide] | significant suppression; also recorded: mild inhibition | only milder inhibition; also recorded: no sufficient inhibition; also recorded: no effect | mild inhibition; also recorded: impacted only IFN-γ producing cells |  |  |  |  | 
2 | C[C@]12C=CC(=O)C=C1CC[C@@H]1[C@@H]2[C@@H](O)C[C@@]2(C)[C@H]1CC[C@]2(O)C(=O)CO [prednisolone] | mild effect | significant suppression; also recorded: strongly inhibited | Significant suppression; also recorded: strong inhibition | significant suppression; also recorded: strong inhibition | Significant suppression; also recorded: reproduced effect on accumulated IL-17 | bare minimum effect |  | effect on 14-3-3ζ-induced CD366 positive CD4 cells (Th1) ([1]; listed as Prednisolone): suppressed; effect on 14-3-3ζ-induced IL-17 positive CD4 cells (Th17) ([1]; listed as Prednisolone): suppressed
3 | Cc1c(N2C(=O)c3ccc(C(=O)O)cc3C2=O)c(=O)n(-c2ccccc2)n1C [BV02] | no effect; also recorded: did not affect | no effect; also recorded: did not affect | did not show an increase; also recorded: significant inhibition | did not show an increase; also recorded: significant inhibition |  |  | no effect; also recorded: did not show any difference | effect on PHA induced PBMC proliferation ([4]; BV02 present): no suppression; also recorded: did not affect; effect on PHA induced IFN-γ secreting cells ([2]; BV02 present): did not affect; effect on PHA induced IL-17 secretion ([2]; BV02 present): partial inhibition
4 | O=C(NN=Cc1c[nH]c2ccccc12)c1ccncc1 [TJU103] | suppressed | suppressed | stronger decrease; also recorded: suppressed; also recorded: Inhibition | less sensitive to inhibition | no difference | no difference | did not inhibit | effect on 14-3-3ζ-induced IFN-γ secreting cells ([2]; listed as TJU131): mild suppression; effect on 14-3-3ζ-induced IL-17 secreting cells ([2]; listed as TJU131): mild suppression; effect on 14-3-3ζ-induced accumulated IL-17 level ([3]; listed as TJU131): no significant difference
5 | C[C@]12C=CC(=O)C=C1CC[C@@H]1[C@@H]2C(=O)C[C@@]2(C)[C@H]1CC[C@]2(O)C(=O)CO [prednisone] |  |  | no effect | no effect |  |  |  | 
6 | B1 |  |  |  |  |  |  |  | number of IFN-γ and IL-17 secreting cells ([5]; listed as 14-3-3e): not replaced; number of IFN-γ and IL-17 secreting cells ([5]; listed as 14-3-3 epsilon): no significant effect
